Here are results for eleven molecules from patent US20250152564A1, “PROPYLENE KETONE-CONTAINING BIOINHIBITOR, PREPARATION METHOD THEREFOR, AND USE THEREOF” (SHANGHAI HANSOH BIOMEDICAL CO., LTD., priority 2022, published 2025).

For one data set, the target named is FGFR2 V564F (Homo sapiens (Human), UniProt P21802, V564F). The data set can be described thus: TR-FRET kinase inhibition assay, FGFR2 V564F. It is filed as biochemical. As to conditions: ATP Km concentration (20 μM). The procedure:
(§1) To measure the IC50 values of the compounds against FGFR1, FGFR2, FGFR3, FGFR4, and FGFR2 V564F at ATP Km concentrations by TR-FRET method.
(§2) TR-FRET (time-resolved fluorescence resonance energy transfer) method was used to detect the inhibitory activity of the compounds on FGFR1, FGFR2, FGFR3, FGFR4, and FGFR2 V564F kinase region fragments. The highest detection concentration of the compounds in 5 kinase experiments was 1000 nM, which was diluted in 3 folds, with a total of 11 concentrations (1000 nM to 0.017 nM). A kinase buffer (50 mM HEPES pH 7.5, 1 mM EGTA, 10 mM MgCl2, 2 mM DTT, and 0.01% Tween-20) was used to prepare 4× enzyme solution, 4× compound solutions diluted in gradient, and a 2×ATP/Peptide substrate solution. To a 384-well plate, 2.5 μL of enzyme solution and 2.5 μL of diluted […] compound solution were added, and 5 μL of 2×ATP/Peptide substrate solution was then added. After reacting at room temperature for 60 minutes for FGFR1, FGFR2, FGFR3, and FGFR2 V564F kinases, and 120 minutes for FGFR4 kinase, 10 μL of a 2× termination and detection mixed liquid prepared with 1×LANCE detection buffer with an EDTA concentration of 20 mM and a Europium-anti-phosphotyrosine (PT66) concentration of 2 nM was added to each well of the plate. After reacting at room temperature for 60 minutes for FGFR1, FGFR2, FGFR3, and FGFR4, and 30 minutes for FGFR2 V564F, the fluorescence signal value in each well of the plate was measured by a microplate reader.
(§3) 1) Inhibition rate (%): Calculation was performed on the raw data (665 nm/620 nm reading ratio) according to the following formula to obtain the inhibition rate. Inhibition rate %=[(mean value in positive control well−value in sample well)/(mean value in positive control well−mean value in negative control well)]×100, wherein the positive control well was a reaction well without a compound […], and the negative control well was a reaction wells without an enzyme.
(§4) 2) Curve fitting: Log(inhibitor) vs. response—Variable slope (four parameters) in GraphPad Prism 6 was used for fitting equation analysis of the compound concentration and the corresponding inhibition rate, and the curve was fitted to obtain the IC50 values of the compounds.

The subject of a further data set is NCI-H716 cells. The data set can be described thus: CellTiter-Glo cell proliferation inhibition, NCI-H716. It is filed as cell-based. Particulars: Homo sapiens, 72 h, read-out: NCI-H716 cell proliferation inhibition rate IC50. As for the experimental part:
(§5) To evaluate inhibitory effects of the compounds on the proliferation of NCI-H716, SNU-16 and BaF3-FGFR2-BICC1 V564F cells by cell proliferation inhibition experiments.
(§6) CellTiter-Glo method was used to detect inhibitory effects of the compounds on the proliferation of NCI-H716, SNU-16 and BaF3 FGFR2-BICC1 V564F cells. The highest detection concentration of the compounds was 1000 nM, which was diluted in 3 folds, with a total of 9 concentrations (1000 nM to 0.15 nM). After the cells were plated at an appropriate density, compounds were added the next day and incubated for 72 h before detection using the […] detection kit.
(§7) 1) Inhibition rate (%): Inhibition rate %=[(mean value in positive control well−value in sample well)/(mean value in positive control well−mean value in negative control well)]×100, wherein the positive control well was a reaction well without a compound […], and the negative control well was a reaction wells without an enzyme.
as §4

Data set [1] relates to BaF3 FGFR2-BICC1 V564F cells. The data set can be described thus: CellTiter-Glo cell proliferation inhibition, BaF3 FGFR2-BICC1 V564F. It is filed as cell-based. Particulars: Mus musculus, 72 h, read-out: BaF3 FGFR2-BICC1 V564F inhibitory activity IC50. The procedure:
as §5, §6, §7, §4

The target of the next data set is FGFR1 (Homo sapiens (Human), UniProt P11362). The data set can be described thus: TR-FRET kinase inhibition assay, FGFR1. The class given is biochemical. As to conditions: ATP Km concentration (30 μM). As for the experimental part: as §1, §2, §3, §4
The next data set concerns the target FGFR2 (Homo sapiens (Human), UniProt P21802). Put plainly: TR-FRET kinase inhibition assay, FGFR2. It is filed as biochemical. As to conditions: ATP Km concentration (30 μM). As for the experimental part:
as §1, §2, §3, §4

A short description of data set [2]: Pharmacokinetic experiment in SD rats after oral administration. The class given is in vivo. As to conditions: 5 mg/kg, plasma; for AUC(0-t) / AUC(0-inf) / half-life / MRT / Cmax: male, Sprague-Dawley (SD), rat, po; for AUC(0-t): read-out: Area under the curve AUC0-t; for AUC(0-inf): read-out: Area under the curve AUC0-∞; for half-life: read-out: Half-life t1/2 (converted); for MRT: read-out: Mean residence time MRT; for Cmax: read-out: Plasma concentration Cmax; for Time to peak tmax: p.o. The procedure: To study the pharmacokinetic behavior of the compounds of the present invention in the rat body (plasma) after oral administration at a dose of 5 mg/kg using SD rats as test animals.
3 SD rats/group, male, from Shanghai Jiesijie Experimental Animal Co., Ltd., animal production license number (SCXK (Shanghai) 2013-0006 N0.311620400001794).
PO, 10% solutol HS15-0.5% CMC-Na was dissolved by ultrasound and prepared into a clear solution or homogeneous suspension.
3 SD rats/group, male; p.o. respectively at a dose of 5 mg/kg and an administration volume of 10 mL/kg after the […] were fasted overnight.
After oral administration to rats, at 0.25, 0.5, 1, 2, 4, 6, 8 and 24 hours, 0.2 mL of blood was collected from the jugular vein, placed in an EDTA-K2 test tube, centrifuged at 6000 rpm for 6 min at 4° C. to separate the plasma, which was stored at −80° C.
1) 100 μL of acetonitrile was added to 20 μL of plasma sample for pelleting, and it was mixed and centrifuged at 3500×g for 5-20 min.
2) The treated supernatant solution was taken and subjected to LC/MS/MS to analyze the concentrations of the test compounds. LC/MS/MS analysis instrument: AB Sciex API 4000 Qtrap.
• Liquid phase conditions: Shimadzu LC-20AD pump • Chromatographic column: Waters Xbridge C18 5 μm, 4.6×50 mm mobile phase: liquid A was 0.1% aqueous formic acid solution, and liquid B was methanol • Flow rate: 1.0 mL/min • Elution time: 0-4.0 min, the eluent was as follows: […]

FGFR2, sequence (P21802 481-770): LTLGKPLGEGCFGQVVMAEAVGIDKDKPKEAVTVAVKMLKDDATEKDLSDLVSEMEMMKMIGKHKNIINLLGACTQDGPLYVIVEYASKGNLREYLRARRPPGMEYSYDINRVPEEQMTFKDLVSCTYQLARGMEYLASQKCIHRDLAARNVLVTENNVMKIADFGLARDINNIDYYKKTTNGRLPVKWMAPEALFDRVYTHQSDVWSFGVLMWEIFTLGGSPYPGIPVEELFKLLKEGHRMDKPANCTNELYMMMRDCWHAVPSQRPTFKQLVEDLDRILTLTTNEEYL
FGFR2 V564F, sequence (P21802 481-770 V564F): as the sequence (P21802 481-770) above, with V84F counted along it
FGFR1, sequence (P11362 478-767): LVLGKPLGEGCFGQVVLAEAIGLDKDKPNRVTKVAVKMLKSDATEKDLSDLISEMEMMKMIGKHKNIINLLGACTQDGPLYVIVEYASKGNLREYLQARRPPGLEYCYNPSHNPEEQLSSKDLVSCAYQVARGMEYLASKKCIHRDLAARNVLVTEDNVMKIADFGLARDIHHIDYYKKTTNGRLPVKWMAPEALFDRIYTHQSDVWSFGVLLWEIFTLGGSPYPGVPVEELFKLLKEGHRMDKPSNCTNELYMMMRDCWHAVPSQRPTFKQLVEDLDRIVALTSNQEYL

On to `C=CC(=O)N1CC[C@H](n2nc(C#Cc3cc4ncn(C)c4cc3Cl)c3c(N)ncc(C(=O)C4CC4)c32)C1` [Example 68, (S)-1-(3-(4-amino-3-((6-chloro-1-methyl-1H-benzo[d]imidazol-5-yl)ethynyl)-7-(cyclopropanecarbonyl)-1H-pyrazolo[4,3-c]pyridin-1-yl)pyrrolidin-1-yl)prop-2-en-1-one], for which the IC50 on FGFR2 V564F amounted to 0.3 nM; with NCI-H716 cells, 1.42 nM; in data set [1] it was 0.5 nM; on FGFR1, 2.4 nM; against FGFR2, 1.4 nM.
At FGFR2 V564F, `C=CC(=O)N1CC[C@H](n2nc(C#Cc3cc4ncn(C5CC5)c4cc3Cl)c3c(N)ncc(C(=O)CC)c32)C1` [Example 45, (S)-1-(3-(4-amino-3-((6-chloro-1-cyclopropyl-1H-benzo[d]imidazol-5-yl)ethynyl)-7-propionyl-1H-pyrazolo[4,3-c]pyridin-1-yl)pyrrolidin-1-yl)prop-2-en-1-one] displayed an IC50 of 0.7 nM. Further, the IC50 in the data set with NCI-H716 cells is 1.84 nM. In addition, the IC50 in data set [1] was 0.6 nM. Further, in data set [2], the AUC(0-t) came to 1440 ng·h/mL, the AUC(0-inf) worked out at 1460 ng·h/mL, the half-life was 4.3 h and the MRT is 4.59 h. In data set [2], the Cmax stood at 290 ng/mL and the Time to peak tmax amounted to 2 h.
`C=CC(=O)N1CC[C@H](n2nc(C#Cc3cc4ncn(CC)c4cc3F)c3c(N)ncc(C(=O)C4CC4)c32)C1` [Example 61, (S)-1-(3-(4-amino-7-(cyclopropanecarbonyl)-3-((1-ethyl-6-fluoro-1H-benzo[d]imidazol-5-yl)ethynyl)-1H-pyrazolo[4,3-c]pyridin-1-yl)pyrrolidin-1-yl)prop-2-en-1-one]: the IC50 turned out to be 0.4 nM against FGFR2 V564F; 1.77 nM with NCI-H716 cells; 1 nM in data set [1]; 2.2 nM at FGFR1; 0.8 nM against FGFR2.
As to `C=CC(=O)N1CC[C@H](n2nc(C#Cc3cc4ncn(C)c4cc3F)c3c(N)ncc(C(C)=O)c32)C1` [Example 8, (S)-1-(3-(7-acetyl-4-amino-3-((6-fluoro-1-methyl-1H-benzo[d]imidazol-5-yl)ethynyl)-1H-pyrazolo[4,3-c]pyridin-1-yl)pyrrolidin-1-yl)prop-2-en-1-one], the results for the IC50 (in the data set on NCI-H716 cells; in data set [1]) were 1.74 nM and 0.4 nM, respectively.
`C=CC(=O)N1CC[C@H](n2nc(C#Cc3ccn4ccnc4c3)c3c(N)ncc(C(=O)C4CC4)c32)C1` [Example 79, (S)-1-(3-(4-amino-7-(cyclopropanecarbonyl)-3-(imidazo[1,2-a]pyridine-7-ethynylene)-1H-pyrazolo[4,3-c]pyridin-1-yl)pyrrolidine-1-methyl)prop-2-en-1-one]: the IC50 came out at 0.4 nM on FGFR2 V564F; 1.2 nM in the data set with NCI-H716 cells; 1.1 nM in data set [1]; 4.5 nM against FGFR1; 0.7 nM at FGFR2.
On to `C=CC(=O)N1CC[C@H](n2nc(C#Cc3ccc4csnc4c3)c3c(N)ncc(C(=O)CC)c32)C1` [Example 90, (S)-1-(3-(4-amino-3-(benzo[c]isothiazole-6-ethynylene)-7-propionyl-1H-pyrazolo[4,3-c]pyridin-1-yl)pyrrolidine-1-methyl)prop-2-en-1-one], for which the IC50 at FGFR2 V564F was found to be 3.1 nM; in the data set with NCI-H716 cells it was 0.98 nM; in data set [1] it was 3.2 nM; against FGFR2 it was 1.6 nM.
`C=CC(=O)N1CC[C@H](n2nc(C#Cc3ccc4c(c3)ncn4C3CC3)c3c(N)ncc(C(=O)CC)c32)C1` [Example 39, (S)-1-(3-(4-amino-3-((1-cyclopropyl-1H-benzo[d]imidazol-5-yl)ethynyl)-7-propionyl-1H-pyrazolo[4,3-c]pyridin-1-yl)pyrrolidin-1-yl)prop-2-en-1-one]: the IC50 on FGFR2 V564F amounted to 0.6 nM. For the same molecule, the IC50 in data set [1] was found to be 2.2 nM. For the same molecule, in data set [2], the AUC(0-t) amounted to 4190 ng·h/mL, the AUC(0-inf) is 4240 ng·h/mL, the half-life is 1 h and the MRT came out at 2.63 h. In addition, in data set [2], the Cmax amounted to 1250 ng/mL and the Time to peak tmax turned out to be 2 h. On FGFR1, this molecule registered an IC50 of 6.1 nM. The IC50 against FGFR2 worked out at 1.7 nM.
Regarding `C=CC(=O)N1CC[C@H](n2nc(C#Cc3cc4ncn(C)c4cc3F)c3c(N)ncc(C)c32)C1` [Example 18, (S)-1-(3-(4-amino-3-((6-fluoro-1-methyl-1H-benzo[d]imidazol-5-yl)ethynyl)-7-methyl-1H-pyrazolo[4,3-c]pyridin-1-yl)pyrrolidin-1-yl)prop-2-en-1-one], in the data set with NCI-H716 cells, the IC50 is 1.82 nM.
As for `C=CC(=O)N1CC[C@H](n2nc(C#Cc3cc4ncn(C)c4cc3F)c3c(N)ncc(-c4nccs4)c32)C1` [Example 9, (S)-1-(3-(4-amino-3-((6-fluoro-1-methyl-1H-benzo[d]imidazol-5-yl)ethynyl)-7-(thiazol-2-yl)-1H-pyrazolo[4,3-c]pyridin-1-yl)pyrrolidin-1-yl)prop-2-en-1-one], the IC50 worked out at 1 nM at FGFR2 V564F, 1.82 nM with NCI-H716 cells, 1.6 nM in data set [1] and 2.2 nM against FGFR2.
The like results for `C=CC(=O)N1CC[C@H](n2nc(C#Cc3ccn4ccnc4c3)c3c(N)ncc(C(C)=O)c32)C1` [Example 77, (S)-1-(3-(7-acetyl-4-amino-3-(imidazo[1,2-a]pyridine-7-ethynylene)-1H-pyrazolo[4,3-c]pyridin-1-yl)pyrrolidine-1-methyl)prop-2-en-1-one] were, in that order, 1.4 nM, 0.92 nM, 2.9 nM and 1.8 nM.
For the molecule `C=CC(=O)N1CC[C@H](n2nc(C#Cc3cc4ncn(C5CC5)c4cc3Cl)c3c(N)ncc(C(=O)C4CC4)c32)C1` [Example 46, (S)-1-(3-(4-amino-3-((6-chloro-1-cyclopropyl-1H-benzo[d]imidazol-5-yl)ethynyl)-7-(cyclopropanecarbonyl)-1H-pyrazolo[4,3-c]pyridin-1-yl)pyrrolidin-1-yl)prop-2-en-1-one], the IC50 at FGFR2 V564F worked out at 1.1 nM; in data set [1], 0.2 nM; against FGFR1, 5.2 nM; on FGFR2, 3.5 nM.
